# Measurements reported in PMC3630250 (Clinical cancer research : an official journal of the …, 2013).
# Assays:
# [1] = tested on: Balb/c mice; settings: twice daily for 4 days; cited from earlier work
# [2] = tested on: mice; settings: cited from earlier work
# [3] = tested on: IκBα phosphorylation in HEK293 cells; experiment: IκBα phosphorylation after TNFα stimulation; type: cell-based; settings: HEK293, 5 and 10 min after TNFα stimulation
SMILES,granulocytosis and LPS-induced mortality [1],toxicity in mice [2],inhibition of IκBα phosphorylation and degradation at early time points [3]
COc1c(Cl)cc2c([nH]c3cnccc32)c1NC(=O)c1cccnc1C [ML-120B],resulted in granulocytosis and LPS-induced mortality,showed toxicity in mice,
NC(=O)Nc1sc(-c2ccc(F)cc2)cc1C(N)=O [TPCA1],,showed toxicity in mice,complete inhibition
